Results: article PMC11809919, “Quinoxaline-based anti-schistosomal compounds have potent anti-plasmodial activity” (PLOS Pathogens, 2025)
Several values for one entry are separate records, joined by “and”; a condition that tells them apart may be missing. Equal entries are not always repeated. Where two headings read alike, the source gives them in different places.

Key:
[1] = system: Dd2-Polδ clones C22-1.1 and C22-2.1; experiment: Dose-response assay on compound 22-selected clones (cross-resistance); assay type: cell-based, Plasmodium falciparum
Experimental: Resistance selections were performed using a mutator parasite line Dd2-Polδ with an elevated mutation rate. Three independent flasks with either 1×10^8 or 1×10^9 parasites each were treated with 5×IC50, and parasite death was monitored by microscopy (Giemsa staining). […] After eight days, compounds were removed from the media and the media was changed on alternate days. […] For recrudescent cultures, compound susceptibility was determined by dose-response assays. Parasite clones were obtained by limiting dilution and harvested for genomic DNA extraction, followed by whole-genome sequencing.
(§1) Compound dose-response assays were performed in flat-bottom 96-well plates. Tightly synchronized ring-stage parasites were diluted to 1% parasitemia at 2% hematocrit, and incubated with a two-fold serial dilution of compounds in complete medium. Untreated parasites or uninfected RBCs were included in the assay plate as controls. Parasite growth was assessed after 72 h by lysing parasites using 2× lysis buffer consisting of 10 mM Tris-HCl, 5 mM EDTA, 0.1% w/v saponin, and 1% v/v Triton X-100, supplemented with 2× SYBR Green I (Molecular Probes). The fluorescence was measured using a FluorStar Omega v5.11 plate reader. IC50 analysis was performed using GraphPad Prism v9, and statistical significance was determined by a two-sided Mann-Whitney U test. All assays were performed in technical duplicate with at least three biological replicates, as noted in the figure legends.

[2] = system: S. mansoni schistosomula; set-up: method as in Padalino et al. [13]; conditions: ref Padalino et al. [13], cited from earlier work
[3] = system: P. falciparum strains Cam/PH0212C, Cam3.II/PH0306-C, UG659, GB4, Tanzania; experiment: Dose-response assay against panel of geographically distinct strains; assay type: cell-based, Plasmodium falciparum; conditions: Cambodian isolates
Experimental: (§2) P. falciparum parasites were cultured at 3% hematocrit in RPMI 1640 (Gibco) medium consisting of 0.5% Albumax II (Gibco), 25 mM HEPES (Sigma), 0.21% sodium bicarbonate, 1x GlutaMAX (Gibco), 25 μg/mL gentamicin (Gibco). A tri-gas mixture (1% O2, 3% CO2, and 96% N2) was used for parasite cultures. Parasites were synchronized using a sorbitol and Percoll density gradient method. The following parasite strains were used: 3D7, Dd2 (MR4, MRA-156, T. Wellems), GB4 (MR4, MRA-925, T. Wellems), UG659 (P. Rosenthal), Tanzania (MR4, MRA-1169, Michal Fried), Cam/PH0212C (R. Fairhurst), and Cam3.II/ PH0306-C (R. Fairhurst). Transfection was performed using ring-stage parasites (5–8% parasitemia) using a Gene Pulser Xcell (Biorad) electroporator.
as §1

[4] = system: P. falciparum 3D7; experiment: Compound dose-response assay (72 h, SYBR Green I), 3D7; assay type: cell-based, Plasmodium falciparum; conditions: for IC50: 72 h, asexual blood stage; for Selectivity index HepG2/3D7: HepG2 72 h CC50 / Pf 3D7 IC50
Experimental: as §2, §1

[5] = system: P. falciparum Dd2; experiment: Compound dose-response assay (72 h, SYBR Green I), Dd2; assay type: cell-based, Plasmodium falciparum; conditions: for IC50: 72 h, asexual blood stage; for Selectivity index HepG2/Dd2: HepG2 72 h CC50 / Pf Dd2 IC50
Experimental: as §2, §1

[6] = system: HepG2 cells; set-up: method as in Padalino et al. [13]; conditions: ref Padalino et al. [13], cited from earlier work
[7] = system: P. falciparum Dd2; experiment: Rate of killing (CFDA-SE labelled RBC reinvasion); assay type: cell-based, Plasmodium falciparum; conditions: Dd2, 10×IC50, 24 h or 48 h
Experimental: The rate of killing was evaluated as previously described in Linares et al.. […] After treatment, the compound was removed, and the culture was diluted (1/3) using fresh RBCs (2% haematocrit) pre-labelled with CFDA-SE (carboxylfluorescein diacetate succinimidyl ester, Life Technologies). Following a 48 h incubation under standard conditions, the ability of treated parasites to infect fresh labelled RBCs was measured using a Cytoflex flow cytometer by quantifying double-positive RBCs after labelling the parasites with MitoTracker Deep Red. Parasite viability was determined as the percentage of infected CFDA-SE-labelled RBCs in drug-treated samples at 24 and 48 h, compared to equivalent untreated controls. Standard compounds dihydroartemisinin, chloroquine, and atovaquone were used as benchmarks for comparing the killing rate of the test compounds.

[8] = system: P. falciparum PfQRP1 mutants (G1612V, D1863Y, D1829*, D1829A); experiment: Dose-response assay on CRISPR-edited PfQRP1 mutant lines; assay type: cell-based, Plasmodium falciparum; conditions: for Susceptibility in CRISPR-edited G1612V and D1863Y PfQRP1 lines: versus silent-mutation and wildtype controls
Experimental: To generate the PfQRP1 hydrolase mutants (D1829stop and D1829A), the pDC2-Cas9-gRNA-donor plasmid was transfected into the P. falciparum Dd2 line. Donor plasmid (50 µg) containing the sgRNA ([…]) and a pfqrp1 homology region of 672 bp, centred on the D1829 residue, was used for transfection. Transfectants were selected using 5 nM WR99210 (a potent inhibitor of P. falciparum dihydrofolate reductase (DHFR) provided by Jacobus Pharmaceuticals) for 8 days, followed by culturing without drug until parasites were observed. Parasite clones were obtained using limiting dilution cloning. Confirmation of gene editing was performed with allele-specific PCR (forward primer […] and reverse primer […]) and Sanger sequencing using an internal primer ([…]).
as §1

[9] = system: P. falciparum ring, trophozoite and schizont stages; experiment: Stage specificity assay; assay type: cell-based, Plasmodium falciparum; conditions: for Stage-specificity: 10 h pulse at ring, trophozoite or schizont stage
Experimental: Stage-specific drug assays were performed following a protocol modified from Murithi et al.. In this assay, parasites were tightly synchronized to the ring stage with repeated 5% sorbitol treatments. On the assay day, schizonts were purified using a 63% Percoll gradient and allowed to […]. […] Parasites were then plated in 96-well plates and exposed to different drug concentrations at various stages: […] Drug treatment was removed through three rounds of washes. Plates were lysed 62 h after drug washout, and parasite growth was assessed similarly to the standard 72 h assay that used constant drug exposure.

[10] = system: β-hematin formation; experiment: Detergent-based β-hematin inhibition assay; assay type: biochemical; conditions: cell-free, NP40 detergent, pH 4.8; read-out: βH Inhibition IC50, individual biological replicate
Experimental: From this stock 40 μL of each was delivered to wells in the final column (column 12) of a 96-well plate together with distilled water (120 μL) and NP40 detergent (305.5 mM, 40 μL). […] A serial dilution of each compound (100 μL) from column 12 to column 2 was carried out. Column 1 served as a blank with 0 mM sample. A 25 mM hematin stock solution was prepared by sonicating hemin in DMSO for one minute and then suspending 179 μL of this in a 1 M acetate buffer (20 mL, pH 4.8). […] The plate was covered and incubated at 37°C for 5 h. […] Acetone (60 μL) was then added to assist with hematin dispersion. The UV-vis absorbance of the plate wells was read on a SpectraMax […] plate reader.

[11] = system: P. berghei liver stage parasites; set-up: method as in PMID 22096101; conditions: cited from earlier work
[12] = system: 3D7 parasites (hemoglobin, 'free' heme, hemozoin); experiment: Cellular heme fractionation assay; assay type: cell-based, Plasmodium falciparum; conditions: 3D7, 0.5 – 2.5× IC50, 30 h
From the text: Cellular heme fractionation to measure the amounts of different heme species was thereafter conducted as previously described. […] Pellets were then resuspended in 1× PBS (pH 7.5) and an aliquot of the trophozoite suspension used to quantify the total number of trophozoites isolated using flow cytometry. Contents of the remaining trophozoite pellet were then released by hypotonic lysis and sonication. […] The UV−visible spectrum of each heme fraction as an Fe(III)heme−pyridine complex was measured using a multi-well plate reader (Spectramax 340PC; Molecular Devices). The total amount of each heme species was quantified using a heme standard curve whereby the mass of each heme-Fe species per trophozoite (fg/cell) was calculated by dividing the total amount of each heme species by the corresponding number of parasites in that fraction as determined by flow cytometry. Statistical comparisons and analyses for trends were made on GraphPad Prism version 10 using Students’ t-test with Welch correction. The total amount of heme obtained from each fraction was quantified using a standard curve prepared from a 100 μg/mL heme standard solution of hematin (porcine) in 0.3 M NaOH. Serial dilutions of this standard were carried out in a 96-well plate with 100 μL 0.3 M NaOH as a blank. […] The visible spectra of heme as Fe(III)heme-pyridine complex were recorded in a multi-well plate reader. The amount of heme Fe per cell was calculated by dividing the total heme Fe in each fraction by the number of cells determined in each fraction.

[13] = system: S. mansoni adult worms; set-up: method as in PMID 24416463; conditions: 400 compounds of the Malaria Box; cited from earlier work
[14] = 72 h, read-out: 72 h -phenotype EC50
[15] = average of phenotype and motility, read-out: Average EC50
[16] = Plasmodium falciparum, 3D7, 72 h
[17] = Plasmodium falciparum, DD2, 72 h
[18] = HepG2, 24 h, read-out: 24 h CC50
[19] = HepG2, 72 h, read-out: 72 h CC50

Row | SMILES | Shift in IC50 in compound 22-selected clones versus parental Dd2-Polδ [1] | EC50 [2, 14] [nM] | EC50 [2, 15] [nM] | EC50 ([2]; read-out: Motility EC50) [nM] | Potency against panel of geographically distinct strains [3] | Selectivity index HepG2/3D7 [4] | IC50 [4, 16] [nM] | Selectivity index HepG2/Dd2 [5] | IC50 [5, 17] [nM] | CC50 [6, 18] [nM] | CC50 [6, 19] [nM] | Rate of parasite killing [7] | Effect of D1829 stop / D1829A PfQRP1 mutation on IC50 [8] | Increase in IC50 in D1829A / D1829 stop PfQRP1 mutants [8] | Susceptibility in CRISPR-edited G1612V and D1863Y PfQRP1 lines [8] | Drop in potency for a 10 h pulse compared with continuous exposure for 72 h [9] | Stage-specificity [9] | Activity against S. mansoni adult worms [13] | other results
1 | O=[N+]([O-])c1ccc2nc(Nc3ccc(Cl)c(Cl)c3)c(Nc3ccc(Cl)c(Cl)c3)nc2c1 [Compound 22] | small but consistent shift in IC50 | 470 | 440 | 420 | potencies similar to those recorded for the lab strain Dd2 | 11.9 | 22 | 8.0 | 32 | 7400 | 260 | rapidly reduced parasitemia | elevated IC50 | 2–3 fold | reduced susceptibility | 3–4 fold | did not demonstrate a strong stage-specificity |  | IC50 [4]: 21.9 nM; IC50 [5]: 32.4 nM
2 | O=[N+]([O-])c1ccc2nc(Nc3ccc(C(F)(F)F)cc3)c(Nc3ccc(C(F)(F)F)cc3)nc2c1 [Compound 31] | small but consistent shift in IC50 | 340 | 310 | 280 | potencies similar to those recorded for the lab strain Dd2 | 8.2 | 9.7 | 5.7 | 14 | 8800 | 80 | rapidly reduced parasitemia | elevated IC50 | 2–3 fold | reduced susceptibility | 3–4 fold | did not demonstrate a strong stage-specificity |  | 
3 | O=[N+]([O-])c1ccc2nc(Nc3cc(C(F)(F)F)ccc3F)c(Nc3cc(C(F)(F)F)ccc3F)nc2c1 [Compound 33] | unexpectedly not | 150 | 150 | 150 | potencies similar to those recorded for the lab strain Dd2 | 22.2 | 4.5 | 14.1 | 7.1 | 27500 | 100 | rapidly reduced parasitemia | not affected |  |  | 3–4 fold | did not demonstrate a strong stage-specificity |  | 
4 | Brc1ccc(Nc2nc3ccccc3nc2Nc2ccc(Br)cc2)cc1 [MMV007224, 2-N,3-N-bis(4-bromophenyl)quinoxaline-2,3-diamine] |  |  |  |  |  |  |  |  |  |  |  |  | less potent |  |  |  |  | among the most active hits | IC50 [10]: 146000 nM and 198000 nM; Activity against P. berghei liver stage parasites [11]: did not show activity; Levels of 'free' heme or hemozoin relative to untreated controls [12]: no significant changes; Undigested hemoglobin levels [12]: modest concentration-dependent increase
5 | O=C(Nc1ccc(Cl)c(Cl)c1)Nc1ccc(Cl)c(Cl)c1 [MMV665852] |  |  |  |  |  |  |  |  |  |  |  |  |  |  |  |  |  | most active compounds | 
